Assay results as given in patent US8323704B2, “Process for preparation of extract of Decalepis hamiltonii having antioxidant activity” (Council of Scientific and Industrial Research, priority 2003, dated 2012).

Legend:
[1] = Antioxidant assay using β-Carotene Linoleate model System (β CLAMS); type: biochemical; details: bleaching of β carotene, 180 min, 50° C.
From the text: Antioxidant assay using β-Carotene Linoleate model System (β CLAMS) (Hidalgo et al., 1994)
This is one of the rapid methods to screen antioxidants, which is mainly based on principle that Linoleic acid which is an unsaturated fatty acid gets oxidized by “Reactive Oxgen Species” (ROS) produced by oxygenated water. The products formed will initiate the β-Carotene oxidation, which leads to discoloration.
Due to insolubility of β-Carotene in water, it is first made into emulsion. β-Carotene is dissolved in chloroform and using Tween-40 (Polyoxyethylene sorbotan manonitrate) as surfactant, it was mixed with Linoleic acid to form emulsion. The resulting mixture is diluted with triple distilled water (1 part) and mixed well. This emulsion is further made up with oxygenated water (4 parts) which initiates the process of oxidation immediately. It is transferred to tubes containing samples. Initial (zero min) reading is read, followed by recording the absorbance at 15 min intervals at 470 nm. All tubes were placed in water bath at 50° C. throughout the experiment.
β Carotene linoleic acid emulsion mixture—100 ml (Jayaprakash et al., 2000) […]
[…] Absorbance of all samples were taken at 470 nm at Zero time and tubes were placed at 50° C. in water bath., Measurement of Absorbance was continued at an interval of 15 minutes, till the colour of β carotene disappeared in the control reaction (t=180 min). […] Dose response of antioxidant activity for various extracts was determined at different concentrations.
The antioxidant activity (% AA) of extracts was evaluated in terms of bleaching of β Carotene using the following formula (Hidalgo et al, 1994).
Each experiment was carried out in triplicate and the deviation of absorbance value was less than 10%. % AA=100[1-(A^0-A^t)/A^00-A^0t)] […]
A^0=Zero time absorbance of sample
A^t=Absorbance of sample after incubation for 180 min
A^00=Zero time absorbance of control
A^t0=Absorbance of control after incubation for 180 min.
And results were expressed as % Antioxidant activity.

[2] = Free radical scavenging activity using D.P.P.H as stable free radical; type: biochemical; details: 20 minutes, 517 nm
Procedure: Schematic representation of chemically stable radical scavenging activity using D.P.P.H as stable free radical: (Blios, 1958)
Free radical scavenging potentials of the extracts were tested against a methanolic solution of α,α-diphenyl-β-picryl hydrazyl (D.P.P.H). Antioxidants reacts with D.P.P.H. and convert it to α,α-diphenyl-β-picryl hydrazine. The degree of discoloration indicates the scavenging potentials of the antioxidant extract. The change in the absorbance produced at 517 nm has been used as a measure of antioxidant activity.
• Methanolic solution of D.P.P.H (100 μM): 39.4 mg of D.P.P.H was dissolved in one liter of analytical grade methanol. • Preparation of the extract solutions: 55 mg of the extract was dissolved in 10 ml of methanol and filtered; the filtrate was used for the experiments. Method:
Aliquots of 0.025, 0.05, 0.1 ml of extracts and standard were taken in different test tubes. To this 5 ml of methanolic solution of D.P.P.H was added, shaken well and the mixture was allowed to stand at room temperature for 20 minutes. The blank was prepared as above without extract. […] The absorbance of blank was first noted at 517 nm. The change of absorbance of the samples was measured.
Scavenging activity was expressed as the inhibition percentage calculated using the following formula, […]

| Molecule | % Activity ± S.D (antioxidant activity, % AA) ([1]; 100 ppm) [%] | % Activity ± S.D (antioxidant activity, % AA) ([1]; 500 ppm) [%] | % Activity ± S.D (antioxidant activity, % AA) ([1]; 1000 ppm) [%] | % Activity ± S.D (anti-radical activity, inhibition percentage) ([2]; 100 ppm) [%] | % Activity ± S.D (anti-radical activity, inhibition percentage) ([2]; 500 ppm) [%] | % Activity ± S.D (anti-radical activity, inhibition percentage) ([2]; 1000 ppm) [%] |
| --- | --- | --- | --- | --- | --- | --- |
| COc1ccc(O)c(C(C)(C)C)c1 [Standard BHA, butylated hydroxy anisole] | 84.3 | 88.6 | 90.1 | – | – | – |
| α,α-diphenyl-β-picryl hydrazyl [Standard D.P.P.H] | – | – | – | 88.3 | 92.6 | 94.3 |
